What was measured:
Type in all cases: physicochemical
[1] = Methotrexate release from PCL discs; conditions: high MePEG concentrations
Method: A known weight of a polymer (typically a 2.5 mg pellet) is added to a 15 ml test tube containing 14 ml of a buffer containing 10 mm Na2 HPO4 --NaH2 PO4, 0.145 m NaCl and 0.4 g/l bovine serum albumin. The tubes are capped and tumbled at 37° C. At specific times all the 14 ml of the liquid buffer are removed and replaced with fresh liquid buffer.
The aqueous phase is then removed and the methylene chloride phase is dried under nitrogen. The residue is then dissolved in 60% acetonitrile: 40% water and the solution is injected on to a HPLC system using the following conditions: C8 column (Beckman Instruments USA), mobile phase of 58%:5%:37% acetonitrile: methanol: water at a flow rate of […].
For MTX the collected buffer is applied directly to the HPLC column with no need for extraction in methylene chloride. MTX is analyzed at 302 nm. For Vanadium containing compounds the liquid buffer is analyzed directly using a UV/VIS spectrometer in the 200 to 300 nm range.
Methotrexate ("MTX"; Sigma Chemical Co.) is ground in a pestle and mortar to reduce the particle size to below 5 microns. It is then mixed as a dry powder with polycaprolactone (molecular wt 18000 Birmingham Polymers, Ala. USA). The mixture is heated to 65° C. for 5 minutes and the molten polymer/methotrexate mixture is stirred into a smooth paste for 5 minutes. […]

[2] = Vanadyl sulfate release from PCL
Method: Vanadyl Sulfate (Fisher Scientific) is first ground in a pestle and mortar to reduce the particle size, then dispersed into melted PCL as described above for MTX. It is then taken up into a syringe to solidify and is ready for use.
Drug release was determined essentially as described above in Example 33, except that a 65 mg pellet of a 10% w/w VOSO4 :PCL was suspended in 10 ml of water and the supernatant analyzed for released Vanadyl Sulphate using UV/Vis absorbance spectroscopy of the peak in the 200 to 300 nm range.

[3] = Encapsulation of sodium suramin in ELVAX microspheres
Method: One milliliter of 5% ELVAX (poly(ethylene-vinyl acetate) cross-linked with 5% vinyl acetate) in dichloromethane ("DCM") is mixed with a fixed weight of sub-micron ground sodium suramin. This mixture is injected into 5 ml of 5% Polyvinyl Alcohol ("PVA") in water in a 30 ml flat bottomed test tube. Tubes containing different weights of the drug are then suspended in a multi-sample water bath at 40° for 90 minutes with automated stirring. The mixtures are removed, and microsphere samples taken for size analysis. Tubes are centrifuged at 1000 g for 5 min. The PVA supernatant is removed and saved for analysis (nonencapsulated drug). The microspheres are then washed (vortexed) in 5 ml of water and recentrifuged. The 5 ml wash is saved for analysis (surface bound drug). Microspheres are then wetted in 50 μl of methanol, and vortexed in 1 ml of DCM to dissolve the ELVAX. The microspheres are then warmed to 40° C., and 5 ml of 50° C. water is slowly added with stirring. This procedure results in the immediate evaporation of DCM, thereby causing the release of sodium suramin into the 5 ml of water.
All samples were assayed for drug content by quantification of fluorescence. Briefly, sodium suramin absorbs uv/vis with a lambda max of 312 nm. This absorption is linear in the 0 to 100 μg/ml range in both water and 5% PVA. […] This fluorescence is quantifiable in the 0 to 25 μg/ml range.

## CN(Cc1cnc2nc(N)nc(N)c2n1)c1ccc(C(=O)N[C@@H](CCC(=O)O)C(=O)O)cc1 [MTX]
[1]
  MTX release: substantial amounts of MTX can be released from the polymer

## O=S(=O)([O-])[O-].[O]=[V+2] [VOSO4, vanadyl sulfate]
[2]; 6 hours, 65 mg pellet 10% w/w in water
  VOSO4 released: 1 mg
[2]; 2 days, 65 mg pellet 10% w/w in water
  VOSO4 released: 3 mg
[2]; day 6, 65 mg pellet 10% w/w in water
  VOSO4 released: 5 mg

## Cc1ccc(C(=O)Nc2ccc(S(=O)(=O)O)c3cc(S(=O)(=O)O)cc(S(=O)(=O)O)c23)cc1NC(=O)c1cccc(NC(=O)Nc2cccc(C(=O)Nc3cc(C(=O)Nc4ccc(S(=O)(=O)O)c5cc(S(=O)(=O)O)cc(S(=O)(=O)O)c45)ccc3C)c2)c1 [suramin]
[3]; 50 mg ELVAX
  drug encapsulated in 50 mg of ELVAX: 50 µg
[3]; ELVAX microspheres
  % encapsulation: < 1%

— patent US5886026A, “Anti-angiogenic compositions and methods of use” (priority 1994, dated 1999)
